Results on 18 compounds are retold here after patent US12522601B2, “1,3,4-oxadiazole derivative compounds as histone deacetylase 6 inhibitor, and the pharmaceutical composition comprising the same” (CHONG KUN DANG PHARMACEUTICAL CORP., priority 2020, dated 2026).

The structures appear in SMILES notation. Bounds are passed on as bounds.

The target of one experiment is T1, human recombinant HDAC6 (Homo sapiens, UniProt Q9UBN7).
T1 construct: purchased Calbiochem Inc. 382180
T1 sequence (Q9UBN7 1-1215): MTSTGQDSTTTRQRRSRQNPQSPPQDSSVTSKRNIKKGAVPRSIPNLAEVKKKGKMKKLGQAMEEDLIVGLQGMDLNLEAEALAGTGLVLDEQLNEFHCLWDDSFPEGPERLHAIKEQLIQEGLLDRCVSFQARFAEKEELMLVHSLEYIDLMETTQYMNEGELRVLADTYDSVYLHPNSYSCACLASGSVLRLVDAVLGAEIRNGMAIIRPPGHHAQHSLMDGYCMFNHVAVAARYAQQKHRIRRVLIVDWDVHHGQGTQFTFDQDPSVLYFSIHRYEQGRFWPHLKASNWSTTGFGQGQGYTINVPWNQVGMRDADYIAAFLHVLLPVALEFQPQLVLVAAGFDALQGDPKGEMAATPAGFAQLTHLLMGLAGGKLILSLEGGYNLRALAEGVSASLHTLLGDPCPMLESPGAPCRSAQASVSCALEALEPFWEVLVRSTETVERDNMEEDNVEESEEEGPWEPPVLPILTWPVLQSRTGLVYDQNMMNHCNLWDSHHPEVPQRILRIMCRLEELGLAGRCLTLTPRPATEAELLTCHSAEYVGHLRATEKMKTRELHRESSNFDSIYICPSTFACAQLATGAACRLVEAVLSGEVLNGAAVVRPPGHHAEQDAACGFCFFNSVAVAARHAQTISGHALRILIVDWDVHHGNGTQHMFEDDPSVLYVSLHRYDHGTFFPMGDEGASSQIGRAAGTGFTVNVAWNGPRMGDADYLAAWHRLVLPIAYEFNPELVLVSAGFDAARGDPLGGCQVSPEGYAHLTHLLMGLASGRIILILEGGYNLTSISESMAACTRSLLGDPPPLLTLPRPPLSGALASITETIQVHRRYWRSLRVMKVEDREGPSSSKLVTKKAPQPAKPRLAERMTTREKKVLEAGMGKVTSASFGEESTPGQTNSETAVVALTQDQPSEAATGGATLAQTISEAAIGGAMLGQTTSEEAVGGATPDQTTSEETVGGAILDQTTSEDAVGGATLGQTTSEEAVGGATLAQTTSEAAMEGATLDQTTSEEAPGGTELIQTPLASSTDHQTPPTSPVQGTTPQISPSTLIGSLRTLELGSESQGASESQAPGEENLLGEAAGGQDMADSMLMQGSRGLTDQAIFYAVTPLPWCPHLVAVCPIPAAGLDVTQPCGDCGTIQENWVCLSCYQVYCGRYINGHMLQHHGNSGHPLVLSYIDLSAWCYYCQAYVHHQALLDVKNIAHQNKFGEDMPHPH
Briefly: In vitro HDAC enzyme activity inhibition assay, HDAC6 (HDAC Fluorimetric Drug Discovery Kit). Format: biochemical. Particulars: for HDAC6 Selectivity (fold): HDAC6 versus HDAC1; for IC50: human recombinant HDAC6, same protocol as the HDAC1 test. The method in brief: (§1)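 Both HDAC1 and HDAC6 (human recombinant, 0.3 μg) tested identically: 10 μM fluorogenic Fluor de Lys-SIRT1 substrate, reaction 60 min at 30° C, developer added for 30 min. IC50 calculated from Ex 360/Em 460 signal over 5-fold serial dilutions.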

The next experiment addresses T2, human recombinant HDAC1 (Homo sapiens, UniProt Q13547).
T2 construct: purchased Enzo Life Sciences, Inc. BML-SE456
Briefly: In vitro HDAC enzyme activity inhibition assay, HDAC1 (HDAC Fluorimetric Drug Discovery Kit). The experiment is classed as biochemical. Particulars: human recombinant HDAC1, Fluor de Lys-SIRT1 substrate 10 μM, 30° C. for 60 minutes. The method in brief:
as §1

Broadly, the IC50 is the concentration at which inhibition is half-maximal.

T2 sequence (Q13547 whole entry): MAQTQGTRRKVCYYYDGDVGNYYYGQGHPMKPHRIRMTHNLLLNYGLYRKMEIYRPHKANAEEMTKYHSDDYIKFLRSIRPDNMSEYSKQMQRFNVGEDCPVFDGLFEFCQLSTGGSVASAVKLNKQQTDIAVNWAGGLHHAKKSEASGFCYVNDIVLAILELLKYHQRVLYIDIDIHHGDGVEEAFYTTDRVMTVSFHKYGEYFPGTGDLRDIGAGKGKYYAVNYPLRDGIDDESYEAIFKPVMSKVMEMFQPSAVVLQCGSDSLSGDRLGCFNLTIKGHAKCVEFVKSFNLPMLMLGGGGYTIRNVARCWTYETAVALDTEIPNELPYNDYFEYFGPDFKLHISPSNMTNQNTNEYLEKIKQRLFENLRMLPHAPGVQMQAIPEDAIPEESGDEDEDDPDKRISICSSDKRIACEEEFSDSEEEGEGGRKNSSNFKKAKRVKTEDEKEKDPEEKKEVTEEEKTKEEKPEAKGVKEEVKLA

For `O=C(C1CN(C2CCC2)C1)N(Cc1cn2ccc(-c3nnc(C(F)F)o3)cc2n1)c1ccccc1` [Compound 4162, 1-cyclobutyl-N-((7-(5-(difluoromethyl)-1,3,4-oxadiazol-2-yl)imidazo[1,2-a]pyridin-2-yl)methyl)-N-phenylazetidine-3-carboxamide], on human recombinant HDAC6, the “HDAC6 Selectivity (fold)” value is 140 fold and the IC50 stood at 358 nM. In addition, the IC50 at human recombinant HDAC1 was above 50000 nM.

As to `Fc1ccc(NCc2cn3ccc(-c4nnc(C(F)F)o4)cc3n2)cc1F` [Compound 3671, N-((7-(5-(difluoromethyl)-1,3,4-oxadiazol-2-yl)imidazo[1,2-a]pyridin-2-yl)methyl)-3,4-difluoroaniline], the “HDAC6 Selectivity (fold)” value at human recombinant HDAC6 is 318 fold. Besides, the IC50 at human recombinant HDAC6 was 157 nM; at human recombinant HDAC1, above 50000 nM.

Turning to `O=C(C1CN(c2ncccn2)C1)N(Cc1cn2ccc(-c3nnc(C(F)F)o3)cc2n1)c1ccccc1` [Compound 4177, N-((7-(5-(difluoromethyl)-1,3,4-oxadiazol-2-yl)imidazo[1,2-a]pyridin-2-yl)methyl)-N-phenyl-1-(pyrimidin-2-yl) azetidine-3-carboxamide], at human recombinant HDAC6, the “HDAC6 Selectivity (fold)” value came to 205 fold and the IC50 worked out at 244 nM. The IC50 on human recombinant HDAC1 was above 50000 nM.

`O=C(C1CCN(C2CCC2)CC1)N(Cc1cn2ccc(-c3nnc(C(F)F)o3)cc2n1)c1cccc(F)c1` [Compound 4141, 1-cyclobutyl-N-((7-(5-(difluoromethyl)-1,3,4-oxadiazol-2-yl)imidazo[1,2-a]pyridin-2-yl)methyl)-N-(3-fluorophenyl)piperidine-4-carboxamide]: the “HDAC6 Selectivity (fold)” value on human recombinant HDAC6 worked out at 204 fold. Also, the IC50 on human recombinant HDAC6 was 245 nM; on human recombinant HDAC1, above 50000 nM.

Turning to `O=C(C1CN(c2ncccn2)C1)N(Cc1cn2ccc(-c3nnc(C(F)F)o3)cc2n1)c1cccc(F)c1` [Compound 4207, N-((7-(5-(difluoromethyl)-1,3,4-oxadiazol-2-yl)imidazo[1,2-a]pyridin-2-yl)methyl)-N-(3-fluorophenyl)-1-(pyrimidin-2-yl) azetidine-3-carboxamide], on human recombinant HDAC6, the “HDAC6 Selectivity (fold)” value is reported as 298 fold and the IC50 worked out at 168 nM. For the same compound, on human recombinant HDAC1, the IC50 is above 50000 nM.

On to `CCN1CC(C(=O)N(Cc2cn3ccc(-c4nnc(C(F)F)o4)cc3n2)c2cccc(F)c2)C1` [Compound 4189, N-((7-(5-(difluoromethyl)-1,3,4-oxadiazol-2-yl)imidazo[1,2-a]pyridin-2-yl)methyl)-1-ethyl-N-(3-fluorophenyl) azetidine-3-carboxamide], for which the “HDAC6 Selectivity (fold)” value on human recombinant HDAC6 stood at 315 fold. Further, the results for the IC50 at human recombinant HDAC6 and at human recombinant HDAC1 were 159 nM and above 50000 nM, respectively.

As for `O=C(C1CCC1)N1CCN(C(=O)N(Cc2cn3ccc(-c4nnc(C(F)F)o4)cc3n2)c2cccc(F)c2)CC1` [Compound 4095, 4-(cyclobutanecarbonyl)-N-((7-(5-(difluoromethyl)-1,3,4-oxadiazol-2-yl)imidazo[1,2-a]pyridine-2-yl)methyl)-N-(3-fluorophenyl)piperazine-1-carboxamide], the “HDAC6 Selectivity (fold)” value at human recombinant HDAC6 is 185 fold. Also, the IC50 is 270 nM on human recombinant HDAC6 and above 50000 nM at human recombinant HDAC1.

With `CN1CCN(C(=O)N(Cc2cn3ccc(-c4nnc(C(F)F)o4)cc3n2)c2ccccc2)CC1` [Compound 3784, N-((7-(5-(difluoromethyl)-1,3,4-oxadiazol-2-yl)imidazo[1,2-a]pyridin-2-yl)methyl)-4-methyl-N-phenylpiperazine-1-carboxamide], on human recombinant HDAC6, the “HDAC6 Selectivity (fold)” value is 727 fold. In addition, the IC50 on human recombinant HDAC6 is 68.8 nM; on human recombinant HDAC1, above 50000 nM.

Turning to `O=C(C1COC1)N1CCN(C(=O)N(Cc2cn3ccc(-c4nnc(C(F)F)o4)cc3n2)c2ccccc2)CC1` [Compound 4102, N-((7-(5-(difluoromethyl)-1,3,4-oxadiazol-2-yl)imidazo[1,2-a]pyridin-2-yl)methyl)-4-(oxetan-3-carbonyl)-N-phenylpiperazine-1-carboxamide], the “HDAC6 Selectivity (fold)” value on human recombinant HDAC6 is 164 fold. The results for the IC50 on human recombinant HDAC6 and at human recombinant HDAC1 were 305 nM and above 50000 nM, respectively.

On to `CC(C)c1cccc(Cc2cn3ccc(-c4nnc(C(F)F)o4)cc3n2)c1` [Compound 3594, 2-(difluoromethyl)-5-(2-(3-isopropylbenzyl)imidazo[1,2-a]pyridin-7-yl)-1,3,4-oxadiazole], for which the “HDAC6 Selectivity (fold)” value at human recombinant HDAC6 is 89 fold. Moreover, the IC50 is 564 nM at human recombinant HDAC6 and above 50000 nM at human recombinant HDAC1.

As to `CC(C)N1CCC(C(=O)N(Cc2cn3ccc(-c4nnc(C(F)F)o4)cc3n2)c2cccc(F)c2)CC1` [Compound 4139, N-((7-(5-(difluoromethyl)-1,3,4-oxadiazol-2-yl)imidazo[1,2-a]pyridin-2-yl)methyl)-N-(3-fluorophenyl)-1-isopropylpiperidine-4-carboxamide], at human recombinant HDAC6, the “HDAC6 Selectivity (fold)” value is reported as 403 fold and the IC50 is 124 nM. Moreover, the IC50 on human recombinant HDAC1 was above 50000 nM.

`CN(C)C(=O)N1CCN(C(=O)N(Cc2cn3ccc(-c4nnc(C(F)F)o4)cc3n2)c2ccccc2)CC1` [Compound 4047, N1-((7-(5-(difluoromethyl)-1,3,4-oxadiazol-2-yl)imidazo[1,2-a]pyridin-2-yl)methyl)-N4,N4-dimethyl-N1-phenylpiperazine-1,4-dicarboxamide]: at human recombinant HDAC6, the “HDAC6 Selectivity (fold)” value is recorded as 400 fold and the IC50 turned out to be 125 nM. The IC50 at human recombinant HDAC1 was above 50000 nM.

For the compound `CN(C)C(=O)N1CCC(C(=O)N(Cc2cn3ccc(-c4nnc(C(F)F)o4)cc3n2)c2ccccc2)CC1` [Compound 4130, N4-((7-(5-(difluoromethyl)-1,3,4-oxadiazol-2-yl)imidazo[1,2-a]pyridin-2-yl)methyl)-N1,N1-dimethyl-N4-phenylpiperidine-1,4-dicarboxamide], the “HDAC6 Selectivity (fold)” value on human recombinant HDAC6 is on record as 133 fold. In addition, the figures for the 50% inhibitory concentration (IC50) at human recombinant HDAC6 and on human recombinant HDAC1 were 375 nM and above 50000 nM, respectively.

Regarding `CC(C)N1CC(C(=O)N(Cc2cn3ccc(-c4nnc(C(F)F)o4)cc3n2)c2ccccc2)C1` [Compound 4160, N-((7-(5-(difluoromethyl)-1,3,4-oxadiazol-2-yl)imidazo[1,2-a]pyridin-2-yl)methyl)-1-isopropyl-N-phenylazetidine-3-carboxamide], at human recombinant HDAC6, the “HDAC6 Selectivity (fold)” value worked out at 247 fold and the IC50 amounted to 202 nM. Further, on human recombinant HDAC1, the IC50 was above 50000 nM.

`CCN1CCN(C(=O)N(Cc2cn3ccc(-c4nnc(C(F)F)o4)cc3n2)c2ccccc2)CC1` [Compound 4033, N-((7-(5-(difluoromethyl)-1,3,4-oxadiazol-2-yl)imidazo[1,2-a]pyridin-2-yl)methyl)-4-ethyl-N-phenylpiperazine-1-carboxamide]: the “HDAC6 Selectivity (fold)” value at human recombinant HDAC6 worked out at 538 fold. Moreover, the figures for the IC50 at human recombinant HDAC6 and on human recombinant HDAC1 were 93 nM and above 50000 nM, respectively.

Regarding `O=C(C1CCN(C2CCC2)CC1)N(Cc1cn2ccc(-c3nnc(C(F)F)o3)cc2n1)c1ccccc1` [Compound 4118, 1-cyclobutyl-N-((7-(5-(difluoromethyl)-1,3,4-oxadiazol-2-yl)imidazo[1,2-a]pyridin-2-yl)methyl)-N-phenylpiperidine-4-carboxamide], on human recombinant HDAC6, the “HDAC6 Selectivity (fold)” value came to 151 fold. The results for the IC50 at human recombinant HDAC6 and at human recombinant HDAC1 were 332 nM and above 50000 nM, respectively.

As for `Fc1ccc(Cc2cn3ccc(-c4nnc(C(F)F)o4)cc3n2)cc1F` [Compound 3587, 2-(2-(3,4-difluorobenzyl)imidazo[1,2-a]pyridin-7-yl)-5-(difluoromethyl)-1,3,4-oxadiazole], on human recombinant HDAC6, the “HDAC6 Selectivity (fold)” value is 150 fold and the IC50 worked out at 334 nM. Besides, the IC50 on human recombinant HDAC1 was above 50000 nM.

`CN(Cc1cn2ccc(-c3nnc(C(F)F)o3)cc2n1)c1ccccc1` [Compound 3725, N-((7-(5-(difluoromethyl)-1,3,4-oxadiazol-2-yl)imidazo[1,2-a]pyridin-2-yl)methyl)-N-methylaniline]: the “HDAC6 Selectivity (fold)” value at human recombinant HDAC6 came to 282 fold. Moreover, the IC50 is 177 nM on human recombinant HDAC6 and above 50000 nM on human recombinant HDAC1.
